# Assay results: patent publication US20030175216A1, “Oral antimicrobial and anti-odor compositions” (Innoscent LTD., priority 2001, published 2003)
# Legend:
# C. xerosis = experiment: Agar plate zone of growth inhibition; format: cell-based, Corynebacterium xerosis; settings: solvent alone (100%), no C9
# Description: (§1) Five microliters of the higher alcohol solutions were placed on the surface of a rich (Brain-heart infusion) agar plate immediately after seeding with a mono-specific bacterial or yeast culture. The plates were incubated for 24-48 hours, and, following further microbial proliferation, the diameters of the zones of growth inhibition were measured (results expressed in centimeters). In a further set of experiments, the effect of solvent type on the antimicrobial activity of the C9 alcohol was investigated. […] These solutions were tested for antimicrobial activity towards three microorganisms (M. lysodeikticus, S. mutans and Corynebacterium xerosis) using the same assay as described above.
# S. mutans = experiment: Agar plate zone of growth inhibition; format: cell-based, Streptococcus mutans; settings: for inhibition of S. mutans (summary): 1% in 100% ethanol
# Description: as §1, with “The higher alcohols were tested for antimicrobial activity against Gram positive bacteria (Streptococcus mutans), Gram negative bacteria (Pseudomonas spp., Escherichia coli, […]) and the yeast Candida albicans. […] Five” for “Five”, “above. The relationship of the concentration of the C9 alcohol to its antimicrobial activity was also investigated. […] These solutions were tested in the assay described above for their ability to inhibit the growth of the bacteria M. lysodeikticus and S. mutans.” for “above.”
# [1] = tested on: odor formation in freshly-taken morning saliva; experiment: Inhibition of in vitro odor formation by higher alcohols (saliva in decarboxylase medium); format: cell-based; settings: for effect on in vitro odor formation (summary): 10-50 μl of 1% solution
# Description: A series of test tubes were prepared, each containing 5 ml of decarboxylase medium (0.5% peptone, 0.3% yeast extract, 0.1% dextrose and 0.02% bromocresol purple). […] The tubes were incubated at 37° C. for three days. Following incubation, the odor was determined by a panel of odor judges, using the following semi-quantitative scale 0=no odor 1=very slight odor […] The higher alcohols tested were alkanols of chain length C8, C9, C10, C11, C12, C14, C16 and C18.
# E. coli = experiment: Agar plate zone of growth inhibition; format: cell-based, Escherichia coli; settings: for inhibition of E. coli (summary): 1% in 100% ethanol
# Description: (§2) The higher alcohols were tested for antimicrobial activity against Gram positive bacteria (Streptococcus mutans), Gram negative bacteria (Pseudomonas spp., Escherichia coli, […]) and the yeast Candida albicans. […] Five microliters of the higher alcohol solutions were placed on the surface of a rich (Brain-heart infusion) agar plate immediately after seeding with a mono-specific bacterial or yeast culture. The plates were incubated for 24-48 hours, and, following further microbial proliferation, the diameters of the zones of growth inhibition were measured (results expressed in centimeters).
# E. faecalis = experiment: Agar plate zone of growth inhibition; format: cell-based
# Description: as §2
# Pseudomonas aeruginosa = experiment: Agar plate zone of growth inhibition; format: cell-based
# Description: as §2
# C. albicans = experiment: Agar plate zone of growth inhibition; format: cell-based, Candida albicans
# Description: as §2
# [2] = tested on: bacteria and yeast tested; experiment: Agar plate growth inhibition, summary statements over the test microorganisms; format: cell-based; settings: Table VI microorganisms
# Description: as §1, with “The higher alcohols were tested for antimicrobial activity against Gram positive bacteria (Streptococcus mutans), Gram negative bacteria (Pseudomonas spp., Escherichia coli, […]) and the yeast Candida albicans. […] Five” for “Five”, “above. The relationship of the concentration of the C9 alcohol to its antimicrobial activity was also investigated. […] These solutions were tested in the assay described above for their ability to inhibit the growth of the bacteria M. lysodeikticus and S. mutans.” for “above.”
# M. lysodeikticus = experiment: Agar plate zone of growth inhibition; format: cell-based; settings: solvent alone (100%), no C9
# Description: as §1, with “above. The relationship of the concentration of the C9 alcohol to its antimicrobial activity was also investigated. […] These solutions were tested in the assay described above for their ability to inhibit the growth of the bacteria M. lysodeikticus and S. mutans.” for “above.”
# [3] = 5 μl of 1% solution (C8-C12 in 70% ethanol, C14-C18 in 100% ethanol)
# [4] = 10 μl of 1% solution, scale 0-5
# [5] = 20 μl of 1% solution, scale 0-5
# [6] = 30 μl of 1% solution, scale 0-5
# [7] = 40 μl of 1% solution, scale 0-5
# [8] = 50 μl of 1% solution (C8-C12 in 70% ethanol, C14-C18 in 100% ethanol) in 5 ml medium + 200 μl saliva, 3 days 37° C., scale 0 no odor to 5 extremely foul
# [9] = 50 μl of 1% solution, scale 0-5
# [10] = 5 μl of 0.1% solution in 70% ethanol
# [11] = 70% ethanol alone, 100 μl, scale 0-5
# [12] = 70% ethanol alone, 200 μl, scale 0-5
SMILES,"Odor Score (Judge 1) [1, 4]","Odor Score (Judge 2) [1, 4]","Odor Score (Judge 1) [1, 5]","Odor Score (Judge 2) [1, 5]","Odor Score (Judge 1) [1, 6]","Odor Score (Judge 2) [1, 6]","Odor Score (Judge 1) [1, 7]","Odor Score (Judge 2) [1, 7]","Odor Score (Judge 1) [1, 8]","Odor Score (Judge 2) [1, 9]","diameter of zone of growth inhibition, E. coli (E. coli; [3])","diameter of zone of growth inhibition, Pseudomonas aeruginosa (Pseudomonas aeruginosa; [3])",effect on microbial growth (summary) [2],further results
"OCC(O)CO [glycerol, reference compound]",–,–,–,–,–,–,–,–,–,–,–,–,–,"diameter of zone of growth inhibition, C. xerosis (C. xerosis): 0.2 centimeters"
CCCCCCCCCCCCCCCCCCO [C18],5,5,5,5,5,5,4,4,3.5,4,0.8 centimeters,–,–,"inhibition of S. mutans (summary) (S. mutans): not of S. mutans; diameter of zone of growth inhibition, S. mutans (S. mutans; [3]): + −; inhibition of E. coli (summary) (E. coli): moderate inhibition"
"CCCCCCCCCCO [C10, 1-decanol]",4,4,0,0,0,0,0,0,0,0,0.7 centimeters,0.8 centimeters,inhibit microbial growth,"diameter of zone of growth inhibition, E. faecalis (E. faecalis; [10]): 0.9 centimeters; diameter of zone of growth inhibition, Pseudomonas aeruginosa (Pseudomonas aeruginosa; [10]): 0.8 centimeters; diameter of zone of growth inhibition, C. albicans (C. albicans; [10]): 0.7 centimeters; diameter of zone of growth inhibition, C. albicans (C. albicans; [3]): 0.8 centimeters; effect on in vitro odor formation (summary) [1]: inhibition of odor formation; diameter of zone of growth inhibition, E. coli (E. coli; [10]): 0.8 centimeters"
CCCCCCCCO [C8],4,3,3,3,3,3,4,3,4,4,–,0.5 centimeters,–,"diameter of zone of growth inhibition, E. faecalis (E. faecalis; [3]): + −; inhibition of the yeast C. albicans (summary) (C. albicans; opaque inhibition zone on the agar plate): only partial inhibition"
"CCO [Ethanol, ethanol, reference compound]",–,–,–,–,–,–,–,–,–,–,–,–,–,"diameter of zone of growth inhibition, Pseudomonas aeruginosa (Pseudomonas aeruginosa; 5 μl of 70% Ethanol alone): + −; diameter of zone of growth inhibition, S. mutans (S. mutans; 5 μl of 100% Ethanol alone): + −; Odor Score (Judge 1) [1, 11]: 5; Odor Score (Judge 2) [1, 11]: 4.5; Odor Score (Judge 1) [1, 12]: 4; Odor Score (Judge 2) [1, 12]: 4.5; diameter of zone of growth inhibition, E. coli (E. coli; 5 μl of 100% Ethanol alone): 1.0 centimeters"
CCCCCCCCCCCCCCO [C14],5,5,5,5,5,5,5,5,4,4,0.9 centimeters,–,inhibit microbial growth,"diameter of zone of growth inhibition, S. mutans (S. mutans; [3]): 1.0 centimeters"
CCCCCCCCCCCCCCCCO [C16],5,5,5,5,5,5,5,5,4,4,0.7 centimeters,–,–,"inhibition of S. mutans (summary) (S. mutans): not of S. mutans; diameter of zone of growth inhibition, S. mutans (S. mutans; [3]): + −; inhibition of E. coli (summary) (E. coli): moderate inhibition"
CCCCCCCCCCCCO [C12],5,5,4,4,3,3,2,3,2,3.5,–,+ −,inhibit microbial growth,"diameter of zone of growth inhibition, E. faecalis (E. faecalis; [3]): 0.7 centimeters; diameter of zone of growth inhibition, Pseudomonas aeruginosa (Pseudomonas aeruginosa; [10]): + −; diameter of zone of growth inhibition, C. albicans (C. albicans; [10]): 0.6 centimeters; diameter of zone of growth inhibition, E. coli (E. coli; [10]): 0.6 centimeters"
"CO [methanol, reference compound]",–,–,–,–,–,–,–,–,–,–,–,–,–,"diameter of zone of growth inhibition, C. xerosis (C. xerosis): 0.7 centimeters"
"CCCCCCCCCCCO [C11, 1-undecanol]",5,5,0,0.5,0,0,0,0,0,0,0.7 centimeters,0.7 centimeters,inhibit microbial growth,"diameter of zone of growth inhibition, E. faecalis (E. faecalis; [10]): 1.0 centimeters; diameter of zone of growth inhibition, Pseudomonas aeruginosa (Pseudomonas aeruginosa; [10]): 0.4 centimeters; diameter of zone of growth inhibition, C. albicans (C. albicans; [10]): 0.7 centimeters; diameter of zone of growth inhibition, C. albicans (C. albicans; [3]): 0.8 centimeters; effect on in vitro odor formation (summary) [1]: inhibition of odor formation; diameter of zone of growth inhibition, E. coli (E. coli; [10]): 0.7 centimeters"
"CC(C)O [2-propanol, reference compound]",–,–,–,–,–,–,–,–,–,–,–,–,–,"diameter of zone of growth inhibition, C. xerosis (C. xerosis): 0.8 centimeters; diameter of zone of growth inhibition, M. lysodeikticus (M. lysodeikticus): 1.1 centimeters; diameter of zone of growth inhibition, S. mutans (S. mutans; solvent alone (100%), no C9): 0.9 centimeters"
"N=C(NCCCCCCNC(=N)NC(=N)Nc1ccc(Cl)cc1)NC(=N)Nc1ccc(Cl)cc1.O=C(O)[C@H](O)[C@@H](O)[C@H](O)[C@H](O)CO.O=C(O)[C@H](O)[C@@H](O)[C@H](O)[C@H](O)CO [CHX, chlorhexidine digluconate, reference compound]",2,1,0,0,0,0,0,0,–,–,–,–,–,"Odor Score (Judge 1) ([1]; 5 μl of 1% solution, scale 0-5): 4; Odor Score (Judge 2) ([1]; 5 μl of 1% solution, scale 0-5): 4.5"
"CCCCCCCCCCCCCCCC[n+]1ccccc1 [CPC, cetylpyridinium chloride, reference compound]",2,2.5,0,0,–,–,–,–,–,–,–,–,–,"Odor Score (Judge 1) ([1]; 5 μl of 1% solution, scale 0-5): 4; Odor Score (Judge 2) ([1]; 5 μl of 1% solution, scale 0-5): 4"
